Source: BindingDB's records for doi:10.1021/jm050824x (Chembridge Research Laboratories and Chembridge, 2006)

Experiments:
[1] = Antiproliferative activity against murine BaF3 cell line expressing NPM-ALK
[2] = Antiproliferative activity against human NPM-ALK positive anaplastic large cell lymphoma karpas299 cell line

Row | SMILES | IC50 [1] | IC50 [2]
1 | CN1CCN(Cc2ccc(NC(=O)c3cc(-c4ccc5c(c4)OCO5)c[nH]c3=O)cc2)CC1 [5-benzo[1,3]dioxol-5-yl-2-oxo-1,2-dihydro-pyridine-3-carboxylic acid [4-(4-methyl-piperazin-1-ylmethyl)-phenyl]-amide] | > 25 µM | 11.2 µM
2 | CN1CCN(CCc2ccc(NC(=O)c3cc(-c4ccc5c(c4)OCO5)c[nH]c3=O)cc2)CC1 [5-benzo[1,3]dioxol-5-yl-2-oxo-1,2-dihydro-pyridine-3-carboxylic acid {4-[2-(4-methyl-piperazin-1-yl)-ethyl]-phenyl}-amide] | – | 7.5 µM
3 | CN1CCN(CCCc2ccc(NC(=O)c3cc(-c4ccc5c(c4)OCO5)c[nH]c3=O)cc2)CC1 [5-benzo[1,3]dioxol-5-yl-2-oxo-1,2-dihydro-pyridine-3-carboxylic acid {4-[3-(4-methyl-piperazin-1-yl)-propyl]-phenyl}-amide] | 13.7 µM | –
